Key:
[1] = test system: Salmonella typhimurium; assay: Antimutagenic activity in Salmonella Typhimurium T-98 assessed as inhibition of acetylaminofluorene-induced mutation at 75 ug/plate; type: functional, Salmonella enterica subsp. enterica serovar Typhimurium
[2] = test system: Salmonella typhimurium; assay: Antimutagenic activity in Salmonella Typhimurium T-98 assessed as inhibition of 2-aminoanthracene-induced mutation at 300 ug/plate; type: functional, Salmonella enterica subsp. enterica serovar Typhimurium
[3] = test system: Salmonella typhimurium; assay: Antimutagenic activity in Salmonella Typhimurium T-100 assessed as inhibition of ethyl methanesulfonate-induced mutation at 75 ug/plate; type: functional, Salmonella enterica subsp. enterica serovar Typhimurium
[4] = test system: Salmonella typhimurium; assay: Toxicity to Salmonella Typhimurium at 0.3 mg/plate; type: organism-based, Salmonella enterica subsp. enterica serovar Typhimurium; conditions: in vivo
[5] = test system: Salmonella typhimurium; assay: Antimutagenic activity in Salmonella Typhimurium T-100 assessed as inhibition of ethyl methanesulfonate-induced mutation at 37.5 ug/plate; type: functional, Salmonella enterica subsp. enterica serovar Typhimurium
[6] = test system: Salmonella typhimurium; assay: Antimutagenic activity in Salmonella Typhimurium T-98 assessed as inhibition of 2-aminoanthracene-induced mutation at 37.5 ug/plate; type: functional, Salmonella enterica subsp. enterica serovar Typhimurium
[7] = test system: Salmonella typhimurium; assay: Antimutagenic activity in Salmonella Typhimurium T-98 assessed as inhibition of 2-aminoanthracene-induced mutation at 75 ug/plate; type: functional, Salmonella enterica subsp. enterica serovar Typhimurium
[8] = test system: Salmonella typhimurium; assay: Antimutagenic activity in Salmonella Typhimurium T-100 assessed as inhibition of ethyl methanesulfonate-induced mutation at 150 ug/plate; type: functional, Salmonella enterica subsp. enterica serovar Typhimurium
[9] = test system: Salmonella typhimurium; assay: Antimutagenic activity in Salmonella Typhimurium T-100 assessed as inhibition of ethyl methanesulfonate-induced mutation at 300 ug/plate; type: functional, Salmonella enterica subsp. enterica serovar Typhimurium
[10] = test system: Salmonella typhimurium; assay: Antimutagenic activity in Salmonella Typhimurium T-98 assessed as inhibition of 2-aminoanthracene-induced mutation at 150 ug/plate; type: functional, Salmonella enterica subsp. enterica serovar Typhimurium
[11] = test system: Salmonella typhimurium; assay: Antimutagenic activity in Salmonella Typhimurium T-98 assessed as inhibition of acetylaminofluorene-induced mutation at 300 ug/plate; type: functional, Salmonella enterica subsp. enterica serovar Typhimurium
[12] = test system: Salmonella typhimurium; assay: Antimutagenic activity in Salmonella Typhimurium T-98 assessed as inhibition of acetylaminofluorene-induced mutation at 37.5 ug/plate; type: functional, Salmonella enterica subsp. enterica serovar Typhimurium
[13] = test system: Salmonella typhimurium; assay: Toxicity to Salmonella Typhimurium at 0.6 mg/plate; type: organism-based, Salmonella enterica subsp. enterica serovar Typhimurium; conditions: in vivo
[14] = test system: Salmonella typhimurium; assay: Antimutagenic activity in Salmonella Typhimurium T-98 assessed as inhibition of acetylaminofluorene-induced mutation at 150 ug/plate; type: functional, Salmonella enterica subsp. enterica serovar Typhimurium

SMILES | inhibition (INH) [1] [%] | inhibition (INH) [2] [%] | inhibition (INH) [3] [%] | Activity [4] | inhibition (INH) [5] [%] | inhibition (INH) [6] [%] | inhibition (INH) [7] [%] | inhibition (INH) [8] [%] | inhibition (INH) [9] [%] | inhibition (INH) [10] [%] | inhibition (INH) [11] [%] | inhibition (INH) [12] [%] | Activity [13] | inhibition (INH) [14] [%]
COc1ccc(/C=C2\COc3c(ccc(O)c3O)C2=O)cc1 [INTRICATINOL] | 48 | 87 | 74 | Non-toxic | 30 | 8 | 36 | 82 | 74 | 57 | 70 | 26 | Non-toxic | 54
COc1ccc(/C=C2\COc3c(ccc(OC)c3O)C2=O)cc1 [INTRICATIN] | 0 | 62 | 4 | Non-toxic | 9 | 70 | 92 | 27 | 45 | 84 | 7 | 8 | Non-toxic | 0

Reference: ChEMBL document CHEMBL1147295, “Plant antimutagens, 6. Intricatin and intricatinol, new antimutagenic homoisoflavonoids from Hoffmanosseggia intricata” (J Nat Prod, 1989)
